Data set [1] relates to α1-acid glycoprotein (AGP). Particulars: literature, cited from earlier work.
For data set [2], the target named is T1, α1-acid glycoprotein (AGP) (Homo sapiens, UniProt P02763).
T1 construct: Kd; [alprenolol]0=500 nM; 30 mM ammonium acetate p; Kd; other: MS detection
The data set can be described thus: LSTDLPF-MS (APCI mass-spectrometry detection) Kd determination, alprenolol/AGP. The format is binding. Particulars: α1-acid glycoprotein (AGP) in buffer, pH 7.5, Kd. On the procedure:
The LSTDLPF-MS tandem was then used in Kd determination for a reversible binding pair of alprenolol and α1-acid glycoprotein (AGP).
MS experiments were carried out on a QTRAP 6500+ time-of-flight (Q-TOF) instrument (Sciex, Concord, ON, Canada) with a commercial Turbo V APCI ionization source. The optimal acceleration and focusing conditions were achieved by using 60 V declustering potential at 525° C. and 90 psi gas pressure. The analyses were performed in positive mode and scanned m/z 250 Da for alprenolol. The results were analyzed by using Analyst® QS 2.0 software. The propagation profiles obtained for [alprenolol]0=500 nM and varying [AGP]0 were reproducible (FIGS. 19A-19J). Experimental conditions were: internal capillary diameter=200 μm, capillary length=100 cm, flow rate of LPF=100 μL/min., loop's internal diameter=75 μm, loop's length=22.7 cm, loop's volume=1 μL; EM injection by 5 μL/min for 12 s (plug length=3.2 cm); “pre-separation” plug displacement by 5 μL/min for 12 s (3.2 cm displacement); [AGP]0 ranged from 0 to 1 mM; buffer was 30 mM ammonium acetate buffer at pH 7.5.
In this case, the screening phenomenon was characterized by enhancing signal of alprenolol with growing [AGP]0, (FIG. 16A). […] The method is also characterized by an acceptable reproducibility.

The target of data set [3] is T2, BSA (Bos taurus, UniProt P02769). To be noted: known value, Andersson et al. Eur. J. Biochem. 1971; cited from earlier work.
T2 sequence (P02769 25-607): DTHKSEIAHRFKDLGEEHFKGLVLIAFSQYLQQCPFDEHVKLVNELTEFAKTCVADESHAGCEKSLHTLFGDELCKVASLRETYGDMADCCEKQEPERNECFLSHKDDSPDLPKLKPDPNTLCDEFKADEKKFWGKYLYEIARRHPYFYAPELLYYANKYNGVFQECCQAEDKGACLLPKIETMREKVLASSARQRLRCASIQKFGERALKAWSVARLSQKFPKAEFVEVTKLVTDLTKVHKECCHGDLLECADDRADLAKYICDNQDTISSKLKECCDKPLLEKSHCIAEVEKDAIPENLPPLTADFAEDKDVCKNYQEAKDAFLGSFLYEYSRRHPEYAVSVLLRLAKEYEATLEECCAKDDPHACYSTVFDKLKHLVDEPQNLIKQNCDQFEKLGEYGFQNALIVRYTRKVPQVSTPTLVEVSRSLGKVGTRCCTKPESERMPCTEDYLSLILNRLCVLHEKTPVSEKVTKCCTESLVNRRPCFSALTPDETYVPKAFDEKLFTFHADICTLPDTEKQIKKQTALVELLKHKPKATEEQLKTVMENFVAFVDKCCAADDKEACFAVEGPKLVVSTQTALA
Data set [4] deals with T2, BSA. Nature of the data set: LSTDLPF-MS (APCI mass-spectrometry detection) Kd determination, BSA/fluorescein. The format is binding, bovine. On the procedure:
In another embodiment, the LSTDLPF setup was coupled with a mass-spectrometry (MS) detector. To facilitate complete dissociation of SM during ionization, an atmospheric pressure chemical ionization (APCI) ionization source was utilized (FIGS. 14A, 16A). The LSTDLPF-MS tandem was first used to study the same BSA/fluorescein binding pair. Experimental conditions were: internal capillary diameter=200 μm, capillary length=100 cm, flow rate of LPF=100 μL/min. loop's internal diameter=75 μm, loop's length=22.7 cm, loop's volume=1 μL, EM injection into the capillary followed by EM displacement from the capillary opening by 5 μL/min for 12 s (EM plug length=3.2 cm); “pre-separation” plug displacement by 5 μL/min for 12 s (3.2 cm displacement); [fluorescein]0=200 nM; and buffer was 30 mM ammonium acetate buffer at pH 7.5. MS experiments were carried out on a QTRAP 6500+ time-of-flight (Q-TOF) instrument (Sciex, Concord, ON, Canada) with a commercial Turbo V APCI ionization source. The optimal acceleration and focusing conditions were achieved by using 60 V declustering potential at 525° C. and 90 psi gas pressure. The analyses were performed in positive mode and scanned m/z 287 Da for fluorescein. The results were analyzed by using Analyst® QS 2.0 software.
The MS signal decreased with increasing [BSA]0 (FIG. 14A), due to the screening effect. The results presented repeatability (see FIGS. 15A-15I). Experimental conditions were: internal capillary diameter=200 μm, capillary length=100 cm, flow rate of LPF=100 μL/min. loop's internal diameter=75 μm, loop's length=22.7 cm, loop's volume=1 μL, EM injection by 5 μL/min for 12 s (plug length=3.2 cm); “pre-separation” plug displacement by 5 μL/min for 12 s (3.2 cm displacement); [fluorescein]0=200 nM; [BSA]0 ranged from 0 to 1 mM; and buffer was 30 mM ammonium acetate buffer at pH 7.5. MS experiments were carried out on a QTRAP 6500+ time-of-flight (Q-TOF) instrument (Sciex, Concord, ON, Canada) with a commercial Turbo V APCI ionization source. […] The results were analyzed by using Analyst® QS 2.0 software

The target in data set [5] is T2, BSA. The data set can be described thus: LSTDLPF-based Kd determination with fluorescence detection, BSA/fluorescein. The format is binding, bovine. On the procedure: In an experimental implementation of the method, LSTDLPF was carried out with flow conditions inside the capillary tube being as close to LPF as possible. It is known that LPF is distorted at the capillary entrance open to a large-volume reservoir (A. Molki, L. Khezzar, A. Goharzadeh Eur. J. Phys. 2013, 34, 1127-1134).
The system operates in the following manner. A loop 116 is utilized in order to deliver the same amount of sample consistently. […] To complete the filling of the loop, the sample 110 was introduced into the loop at 15 μL/min during 12 s (t1) by using a sample low pressure pump 126, which represents 3 times the volume of the loop (FIG. 8A). The low-pressure pump 126 may be, but is not limited to, a syringe pump or a peristaltic pump. While the loop is being filled as depicted in FIG. 8A, the capillary 108 is conditioned with the mobile phase 118 at high flow rate by using a high-pressure pump 124. This high flow rate corresponds to the flow rate utilized during the propagation and will be noted Qprop afterward.
The injection of the sample is illustrated in FIG. 8B. The positions of both valves 102 and 104 have been switched. In this configuration, the low-pressure pump 128 delivered the mobile phase 112 via the injection loop 116 which contained the sample or equilibrium mixture (EM) 110. […]

These results are taken from patent US11506660B2, “Method and system for determining equilibrium dissociation constant of a reversible binding pair” (priority 2017, dated 2022).

Read-outs that look alike come from different tables or passages of the source.

In general, Kd refers to the free concentration of one partner at which half of the binding sites on the other are occupied at equilibrium, for simple one-to-one binding.

T1 sequence (P02763 19-201): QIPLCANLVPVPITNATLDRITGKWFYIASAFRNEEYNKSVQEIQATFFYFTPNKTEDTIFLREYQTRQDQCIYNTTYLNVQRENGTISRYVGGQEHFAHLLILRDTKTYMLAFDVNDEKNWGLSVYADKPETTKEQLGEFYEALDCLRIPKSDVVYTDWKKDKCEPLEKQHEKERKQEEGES

For the molecule `C=CCc1ccccc1OCC(O)CNC(C)C` (stereo not shown) [alprenolol, Alprenolol], the Kd in data set [1] (Bao et al. ChemBioChem 2011) is 2.1 ± 0.3 µM; in data set [1] (Imamura et al. Chirality 2002), 1.6 ± 0.1 µM. Moreover, the Kd at 500 nM in data set [2] (after 2-step screening compensation (FIG. 16C), [alprenolol]0=500 nM, 30 mM ammonium acetate pH 7.5) was found to be 1.8 ± 0.2 µM; in data set [2] (measurements performed on a different day (FIGS. 20A-20D)), 4.1 ± 0.8 µM.
As to `O=C1OC2(c3ccc(O)cc3Oc3cc(O)ccc32)c2ccccc21` [fluorescein], the Kd at BSA [3] is approximately 30 µM; on BSA [4] (after 2-step screening compensation, first experiment (FIG. 14C), [fluorescein]0=200 nM, read-out: Kd) it was 32 ± 4 µM; on BSA [4] (after screening compensation, reproduced on another day (FIG. 18), read-out: Kd), 24 ± 2 µM; at BSA [4] (weighted average of the two Kd measurements, read-out: weighted average of Kd), 26 ± 2 µM; at BSA [5] (single experiment, non-linear regression of isotherm with Equation 5, [fluorescein]0=200 nM, 30 mM ammonium acetate pH 7.5, error = SD of regression, read-out: Kd) it was 23 ± 3 µM; at BSA [5] (triplicate experiment on three different days, error = SD of the three experiments, read-out: global Kd), 20 ± 2 µM.
